In ChEMBL document CHEMBL1137245, “Synthesis and anti-HIV-1 activity of a novel series of 1,4,2-benzodithiazine-dioxides” (Bioorg Med Chem Lett, 2006):
pEC50, pIC50: −log10 of the molar value.

How the values were obtained:
[1] = Therapeutic index, ratio of IC50 for CEM cells to EC50 for HIV1; format: cell-based, CCRF-CEM; settings: human, read-out: Ratio IC50/EC50
[2] = system: Human immunodeficiency virus 1; experiment: Antiviral activity against HIV1 in CEM cells; format: functional, organism-based; settings: Human immunodeficiency virus 1, CCRF-CEM
[3] = system: CCRF-CEM; experiment: Cytotoxicity against CEM cells; format: cell-based; settings: Homo sapiens

Row | pEC50 [2] | SMILES | selectivity ratio [1] | pIC50 [3]
1 | 6.01 | Cc1cc2c(cc1Cl)SC1=NCCCN1S2(=O)=O | > 204 | < 3.70
2 | < 3.70 | Cc1cc2c(cc1Cl)SC1=NC(CSCc3ccccc3)CN1S2(=O)=O (stereo not drawn) | – | 3.87
3 | 3.79 | Cc1cc2c(cc1Cl)SC1=NCC(C)CN1S2(=O)=O (stereo not drawn) | > 1.23 | < 3.70
4 | 5.07 | Cc1cc2c(cc1Cl)SC1=NCC(C)N1S2(=O)=O (stereo not drawn) | 12.6 | 3.97
5 | 4.78 | Cc1cc2c(cc1Cl)SC1=NCCN1S2(=O)=O | 8.2 | 3.87
6 | 7.05 | Cc1cc(Cl)cc2c1S(=O)(=O)N1CCCN=C1S2 | 1180 | 3.97
7 | 5.32 | O=S1(=O)c2ccc(Cl)cc2SC2=NCCCN21 | > 42.1 | < 3.70
8 | 5.39 | Cc1cc2c(cc1Cl)SC1=NC(CCl)CN1S2(=O)=O (stereo not drawn) | 6.4 | 4.55
